Experimental data reported in PubChem BioAssay AID1671204.

Target: Tyrosine-protein kinase ABL1 (Homo sapiens) (UniProt P00519)
Test: ABL1 kinase inhibitors, dose response, biochemical, Z'-LYTE FRET, direct format, recombinant human (AID 1671204)
Conditions: Z'-LYTE FRET kinase assay

Tyrosine-protein kinase ABL1 (Homo sapiens), sequence (P00519 whole entry, looked up): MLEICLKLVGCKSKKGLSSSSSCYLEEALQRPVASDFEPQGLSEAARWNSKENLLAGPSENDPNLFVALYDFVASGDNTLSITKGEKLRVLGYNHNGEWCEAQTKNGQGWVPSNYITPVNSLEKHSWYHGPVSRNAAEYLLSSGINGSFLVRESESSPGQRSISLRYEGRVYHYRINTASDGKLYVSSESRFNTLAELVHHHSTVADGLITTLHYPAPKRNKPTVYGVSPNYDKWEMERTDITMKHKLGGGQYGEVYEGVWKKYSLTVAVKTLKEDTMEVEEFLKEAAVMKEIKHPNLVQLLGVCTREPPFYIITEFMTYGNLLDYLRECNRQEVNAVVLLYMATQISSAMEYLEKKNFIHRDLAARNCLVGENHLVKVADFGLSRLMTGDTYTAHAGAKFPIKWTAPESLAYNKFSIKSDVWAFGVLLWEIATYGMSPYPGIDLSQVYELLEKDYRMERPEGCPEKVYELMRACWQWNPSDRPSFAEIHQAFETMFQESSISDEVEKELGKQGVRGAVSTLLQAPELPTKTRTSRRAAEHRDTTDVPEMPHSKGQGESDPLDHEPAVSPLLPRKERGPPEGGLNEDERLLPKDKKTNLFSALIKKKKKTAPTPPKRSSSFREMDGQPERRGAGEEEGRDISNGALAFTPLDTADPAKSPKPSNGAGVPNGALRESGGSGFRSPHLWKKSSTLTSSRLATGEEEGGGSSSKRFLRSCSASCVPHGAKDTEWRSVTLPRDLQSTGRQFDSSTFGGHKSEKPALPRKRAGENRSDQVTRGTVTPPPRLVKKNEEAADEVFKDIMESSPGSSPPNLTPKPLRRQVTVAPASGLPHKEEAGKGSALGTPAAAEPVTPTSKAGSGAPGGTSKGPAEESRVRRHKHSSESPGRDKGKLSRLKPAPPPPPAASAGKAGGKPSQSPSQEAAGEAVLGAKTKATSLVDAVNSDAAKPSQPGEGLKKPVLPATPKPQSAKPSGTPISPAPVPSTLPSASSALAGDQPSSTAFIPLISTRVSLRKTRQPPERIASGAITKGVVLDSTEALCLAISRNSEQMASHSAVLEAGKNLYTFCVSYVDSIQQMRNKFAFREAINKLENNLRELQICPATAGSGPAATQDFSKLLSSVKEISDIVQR

- IC50: 0.434 µM
SMILES: COc1cc2ncnc(Nc3cccc(Cl)c3)c2cc1OC
